Earlier results in patent publication US9655910B2, “Compositions and methods for treating addiction” (BODYBIO INC., priority 2014, dated 2017).
pKi: −log10 of the molar value.

Key:
CB1 cannabinoid receptor = CB1 cannabinoid receptor (Rattus norvegicus, UniProt P20272)
CB2 receptor = CB2 receptor (Homo sapiens, UniProt P34972); conditions: compared with CB1
CB2 receptor, sequence (P34972 whole entry): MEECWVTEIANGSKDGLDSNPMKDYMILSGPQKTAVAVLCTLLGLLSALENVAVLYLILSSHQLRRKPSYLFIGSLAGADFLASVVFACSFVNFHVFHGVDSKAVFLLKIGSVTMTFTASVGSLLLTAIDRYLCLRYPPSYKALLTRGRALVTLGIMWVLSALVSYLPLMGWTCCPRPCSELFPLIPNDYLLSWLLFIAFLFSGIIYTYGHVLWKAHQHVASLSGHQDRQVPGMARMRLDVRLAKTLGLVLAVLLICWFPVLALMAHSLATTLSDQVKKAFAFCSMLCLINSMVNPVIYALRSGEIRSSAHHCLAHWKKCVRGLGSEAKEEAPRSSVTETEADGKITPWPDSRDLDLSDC

CB1 cannabinoid receptor, sequence (P20272 whole entry): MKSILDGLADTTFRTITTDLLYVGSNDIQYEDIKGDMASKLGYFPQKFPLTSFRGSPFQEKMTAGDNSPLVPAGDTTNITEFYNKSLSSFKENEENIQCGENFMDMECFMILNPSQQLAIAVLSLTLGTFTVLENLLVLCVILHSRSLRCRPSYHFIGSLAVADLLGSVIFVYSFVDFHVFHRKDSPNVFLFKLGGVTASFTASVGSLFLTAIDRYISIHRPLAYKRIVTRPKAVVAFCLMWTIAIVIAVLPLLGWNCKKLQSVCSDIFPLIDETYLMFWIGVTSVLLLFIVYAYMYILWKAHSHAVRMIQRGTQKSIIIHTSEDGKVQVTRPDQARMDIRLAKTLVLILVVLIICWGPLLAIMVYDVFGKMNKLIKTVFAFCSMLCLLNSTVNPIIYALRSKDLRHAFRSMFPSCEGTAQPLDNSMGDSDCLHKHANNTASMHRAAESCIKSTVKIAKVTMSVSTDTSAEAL

## CCCCCC=CCC=CCC=CCC=CCCCCOC(CO)CO [Noladin ether, 2-arachidonyl glyceryl ether]
CB1 cannabinoid receptor
  pKi: 7.67
CB2 receptor
  binding to the CB2 receptor: only weakly
mice
  effects caused in mice: sedation, hypothermia, intestinal immobility, and mild antinociception
